Measurements published in ChEMBL document CHEMBL3880409, “Pharmaceutical compositions and their methods of use” (2008).
Activity calls are given as the source filed them.

Experiments:
[1] = biological target: T1, Neuronal acetylcholine receptor; alpha4/beta2 (Homo sapiens) (UniProt P17787+P43681); assay: Positive allosteric modulation at human alpha4beta2 nAChR expressed in HEK293 cells assessed as potentiation of (3R)-1-pyridin-3-ylpyrrolidin-3-amine-induced calcium flux preincubated for 5 mins followed by agonist addition measured for 3 to 5 mins by FLIPR assay relative to control; type: cell-based; design: concentration or dose not given beside the values
[2] = biological target: T1, Neuronal acetylcholine receptor; alpha4/beta2 (Homo sapiens); assay: Positive allosteric modulation at human alpha4beta2 nAChR expressed in HEK293 cells assessed as potentiation of 5-[(2R)-azetidin-2-ylmethoxy]-2-chloropyridine-induced calcium flux preincubated for 5 mins followed by agonist addition measured for 3 to 5 mins by FLIPR assay relative to control; type: cell-based; design: concentration or dose not given beside the values
[3] = biological target: T1, Neuronal acetylcholine receptor; alpha4/beta2 (Homo sapiens); assay: Positive allosteric modulation at human alpha4beta2 nAChR expressed in HEK293 cells assessed as potentiation of varenicline-induced calcium flux preincubated for 5 mins followed by agonist addition measured for 3 to 5 mins by FLIPR assay; type: cell-based
[4] = biological target: T1, Neuronal acetylcholine receptor; alpha4/beta2 (Homo sapiens); assay: (§1) Positive allosteric modulation at human alpha4beta2 nAChR expressed in HEK293 cells assessed as potentiation of (3R)-1-pyridin-3-ylpyrrolidin-3-amine-induced calcium flux at 10 uM preincubated for 5 mins followed by agonist addition measured for 3 to 5 mins by FLIPR assay relative to control; type: cell-based
Rattus norvegicus [5] = assay: (§2) Potentiation of 3 umol/kg of (1S,5S)-3-(3,6-diaza-bicyclo[3.2.0]hept-3-yl)-quinoline-induced antinociceptive activity in Sprague-Dawley rat assessed as reversal of tight ligation of L5-L6 spinal nerves-mediated mechanical allodynia by measuring paw withdrawal threshold at 35 umol/kg, ip administered prior to agonist treatment measured after 30 mins; type: functional
[6] = biological target: T1, Neuronal acetylcholine receptor; alpha4/beta2 (Homo sapiens); assay: Positive allosteric modulation at human alpha4beta2 nAChR expressed in HEK293 cells assessed as potentiation of ispronicline-induced calcium flux preincubated for 5 mins followed by agonist addition measured for 3 to 5 mins by FLIPR assay; type: cell-based
[7] = biological target: T1, Neuronal acetylcholine receptor; alpha4/beta2 (Homo sapiens); assay: Positive allosteric modulation at human alpha4beta2 nAChR expressed in HEK293 cells assessed as potentiation of (1S,5S)-3-(3,6-diaza-bicyclo[3.2.0]hept-3-yl)-quinoline-induced calcium flux preincubated for 5 mins followed by agonist addition measured for 3 to 5 mins by FLIPR assay; type: cell-based
[8] = biological target: T1, Neuronal acetylcholine receptor; alpha4/beta2 (Homo sapiens); assay: Positive allosteric modulation at human alpha4beta2 nAChR expressed in HEK293 cells assessed as potentiation of 2-methyl-3-(2-(S)-pyrrolidinylmethoxy)pyridine-induced calcium flux preincubated for 5 mins followed by agonist addition measured for 3 to 5 mins by FLIPR assay; type: cell-based
Rattus norvegicus [9] = assay: (§3) Potentiation of 5-[(2R)-Azetidin-2-yl methoxy]-2-chloropyridine-induced antinociceptive activity in Sprague-Dawley rat assessed as reversal of tight ligation of L5-L6 spinal nerves-mediated mechanical allodynia by measuring increase in paw withdrawal threshold at 3.5 umol/kg, ip administered prior to agonist treatment measured after 30 mins; type: functional, organism-based
[10] = Toxicity in ferret assessed as emesis at 3.5 umol/kg after 30 mins measured for 90 mins; design: species or system Mustela putorius furo; details: in vivo, 1.5 h
Rattus norvegicus [11] = assay: as §3, with “measuring” for “measuring increase in”, “10 mg/kg,” for “3.5 umol/kg,”, “mins (reference value: 24%)” for “mins”; type: functional
[12] = Toxicity in ferret assessed as emesis at 3.5 umol/kg administered 30 mins prior to agonist treatment measured for 90 mins in presence of 5-[(2R)-Azetidin-2-yl methoxy]-2-chloropyridine; design: species or system Mustela putorius furo; details: in vivo, 1.5 h
[13] = biological target: T1, Neuronal acetylcholine receptor; alpha4/beta2 (Homo sapiens); assay: as §1, with “5-[(2R)-azetidin-2-ylmethoxy]-2-chloropyridine-induced” for “(3R)-1-pyridin-3-ylpyrrolidin-3-amine-induced”; type: cell-based
Rattus norvegicus [14] = assay: as §2, with “of 30” for “of 3”; type: functional
Rattus norvegicus [15] = assay: Potentiation of 5-[(2R)-Azetidin-2-yl methoxy]-2-chloropyridine-induced antinociceptive activity in ip dosed Sprague-Dawley rat assessed as reversal of tight ligation of L5-L6 spinal nerves-mediated mechanical allodynia by measuring paw withdrawal threshold administered prior to agonist treatment measured after 30 mins; type: functional
Rattus norvegicus [16] = assay: Antinociceptive activity in Sprague-Dawley rat assessed as reversal of tight ligation of L5-L6 spinal nerves-induced mechanical allodynia by measuring paw withdrawal threshold at 500 umol/kg, ip measured after 30 mins; type: functional

Structure (SMILES) | Activity [1] | Activity [2] | also measured
c1cncc(-c2noc(-c3cccnc3)n2)c1 | 200 to 400% | 200 to 400% | 
Oc1cncc(-c2nc(-c3cccnc3)no2)c1 | 90 to 120% | 90 to 120% | 
Brc1cncc(-c2nc(-c3cccnc3)no2)c1 | 120 to 150% | 120 to 150% | 
Fc1ccc(-c2nc(-c3cccnc3)no2)cc1F | 200 to 400% | 200 to 400% | 
CC(=O)c1cccc(-c2nc(-c3cccnc3)no2)c1 | 150 to 200% | 150 to 200% | 
N#Cc1cccc(-c2nc(-c3cccnc3)no2)c1 |  |  | Activity [3]: Active; Activity [4]: 200 to 400%; fold change (FC) [4]: 10 to 100; Activity (Rattus norvegicus [5]): 41%; Activity [6]: Active; Activity [7]: Active; Activity [8]: Active; Activity (Rattus norvegicus [9]): Active; Activity [10]: Non-Toxic; Activity (Rattus norvegicus [11]): 76%; Activity [12]: Non-Toxic; Activity [13]: 200 to 400%; fold change (FC) [13]: 10 to 100; Activity (Rattus norvegicus [14]): 56%; Activity (Rattus norvegicus [15]): Dose-dependent effect; Activity (Rattus norvegicus [15]; record 2): 33 - 63%
c1cc(-c2noc(-c3cccnc3)n2)cc(-c2nnn[nH]2)c1 | 90 to 120% | 90 to 120% | 
N#Cc1ccc(-c2nc(-c3cccnc3)no2)cc1 | 150 to 200% | 150 to 200% | 
O=[N+]([O-])c1cccc(-c2nc(-c3cccnc3)no2)c1 | 200 to 400% | 200 to 400% | 
Cc1ccc(-c2noc(-c3cccc(C#N)c3)n2)cn1 | 150 to 200% | 150 to 200% | 
Clc1cc(-c2noc(-c3cccnc3)n2)ccn1 | 120 to 150% | 120 to 150% | 
O=c1ccc(-c2noc(-c3cccnc3)n2)c[nH]1 | 120 to 150% | 120 to 150% | 
Fc1cccc(-c2nc(-c3cccnc3)no2)c1F | 200 to 400% | 200 to 400% | 
N#Cc1cccc(-c2noc(-c3ccc(F)nc3)n2)c1 | 150 to 200% | 150 to 200% | 
NS(=O)(=O)c1cccc(-c2nc(-c3cccnc3)no2)c1 | 200 to 400% | 200 to 400% | 
N#Cc1cccc(-c2noc(-c3cccnc3)n2)c1 | 200 to 400% | 200 to 400% | 
NCC1(CC(=O)O)CCCCC1 [GABAPENTIN] |  |  | Activity (Rattus norvegicus [16]): 58%
CS(=O)(=O)c1cccc(-c2nc(-c3cccnc3)no2)c1 | 120 to 150% | 120 to 150% | 
N#Cc1cccc(-c2noc(-c3ccc(Cl)nc3)n2)c1 | 150 to 200% | 150 to 200% | 
